Data as given in paper PMC5814047, “Peptidic inhibitors of insulin-degrading enzyme with potential for dermatological applications discovered via phage display” (PLoS ONE, 2018).
Where “and” joins values, the source holds several entries; their conditions need not be identical. Equal values may be shown once. Ends that are not written are not given here.

Tests used:
[1] = molecular target: T1, IDE (Homo sapiens, UniProt P14735); experiment: biochemical; details: for IC50: dose-response, FRET1, read-out: IC50s, Mean; for IC50 <500 uM?: initial test at 500 uM; for remaining activity at 500 µM: individual replicates, read-out: Percent activity at 500 uM, Replicate 1-4; for Ki: substrate FRET1 5 μM, Ki from IC50 with the Cheng-Prusoff equation, read-out: Ki FRET1; for Percent activity at 500 uM, Mean: N 4
T1 construct: made in house; host or cells: bacteria
T1 sequence (P14735 1-1019): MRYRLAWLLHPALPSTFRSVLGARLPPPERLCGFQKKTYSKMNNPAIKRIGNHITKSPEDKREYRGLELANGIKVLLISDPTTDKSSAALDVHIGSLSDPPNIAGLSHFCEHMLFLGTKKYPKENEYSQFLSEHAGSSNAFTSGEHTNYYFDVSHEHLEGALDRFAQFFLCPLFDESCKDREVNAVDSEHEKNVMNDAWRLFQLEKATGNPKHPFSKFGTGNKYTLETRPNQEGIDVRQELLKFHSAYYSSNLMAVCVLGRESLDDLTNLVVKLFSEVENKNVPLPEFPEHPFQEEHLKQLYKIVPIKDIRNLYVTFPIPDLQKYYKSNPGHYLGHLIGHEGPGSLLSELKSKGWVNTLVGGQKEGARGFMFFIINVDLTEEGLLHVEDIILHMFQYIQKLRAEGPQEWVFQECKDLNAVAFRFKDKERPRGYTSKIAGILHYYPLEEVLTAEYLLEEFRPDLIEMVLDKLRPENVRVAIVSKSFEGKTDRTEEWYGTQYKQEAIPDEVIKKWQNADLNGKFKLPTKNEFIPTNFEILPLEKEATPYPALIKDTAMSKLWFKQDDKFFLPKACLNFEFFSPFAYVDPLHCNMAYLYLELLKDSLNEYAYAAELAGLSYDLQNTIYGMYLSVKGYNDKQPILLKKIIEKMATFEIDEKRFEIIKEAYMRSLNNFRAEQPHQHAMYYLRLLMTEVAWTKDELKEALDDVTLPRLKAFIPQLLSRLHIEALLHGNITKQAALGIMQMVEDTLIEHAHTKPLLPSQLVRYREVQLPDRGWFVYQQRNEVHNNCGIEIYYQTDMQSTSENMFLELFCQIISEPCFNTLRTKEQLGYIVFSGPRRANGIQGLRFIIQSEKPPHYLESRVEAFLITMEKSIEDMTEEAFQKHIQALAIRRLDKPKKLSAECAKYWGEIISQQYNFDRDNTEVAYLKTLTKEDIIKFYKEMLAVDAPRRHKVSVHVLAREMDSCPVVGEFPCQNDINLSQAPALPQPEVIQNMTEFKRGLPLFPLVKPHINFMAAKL
Protocol: The six selected peptide sequences (C7C-1, C7C-2, 12–1, 12–2, 12–3 and 12–4) were synthesized, together with a variety of modifications, yielding a total of 25 peptides (Table 1). […] Other modifications included N-terminal acetylation and C-terminal amidation, included to mimic the charge state of the peptides when incorporated in the phage coat protein (Table 1).
(§1) IDE activity was quantified by monitoring the degradation of Mca-[…](Dnp) (FRET1, 5 μM), fluoresceinated and biotinylated amyloid ß-protein (FAßB; 500 nM) or recombinant human insulin (50 nM) in PBS supplemented with 0.05% BSA. […] In vitro activity assays incorporated recombinant human IDE (1 nM) purified from bacteria. For quantitation of insulin degradation in primary murine skin fibroblasts, cells (1 x 10^5/well) were plated in 96-well plates and maintained in DMEM supplemented with 10% fetal bovine serum (FBS), 2mM glutamine, penicillin and streptomycin. After addition of insulin (10 nM or 100 nM), samples of conditioned medium were removed daily and quickly frozen, then insulin levels were quantified in parallel by ELISA according to manufacturer’s recommendations (Crystal Chem, Downers Grove, IL, USA). Assessment of the activity of P12-3A against a variety of matrix-metalloproteases was conducted using the Matrix Metalloproteinase (MMP) Inhibitor Profiling Kit, Fluorometric RED (Enzo Life Sciences, Inc., Farmingdale, NY, USA) according to manufacturer’s recommendations using the broad-spectrum MMP inhibitor, NNGH, as a positive control.

[2] = molecular target: T1, IDE; experiment: biochemical; details: for IC50: from initial test at 10 uM using insulin (100 nM), read-out: IC50 (summary of results, listed in Table 1); for Ki: substrate recombinant human insulin 50 nM, Ki from IC50 with the Cheng-Prusoff equation
Description: The six selected peptide sequences (C7C-1, C7C-2, 12–1, 12–2, 12–3 and 12–4) were synthesized, together with a variety of modifications, yielding a total of 25 peptides (Table 1). For the 12-mer peptides, we synthesized variants of the parent peptides truncated at one or both termini, to test whether the entire sequence was necessary or not, in the hope that shorter, and thus less expensive, sequences might be effective. Other modifications included N-terminal acetylation and C-terminal amidation, included to mimic the charge state of the peptides when incorporated in the phage coat protein (Table 1). To assess the extent to which these peptide sequences inhibit IDE, we quantified their potency in protease activity assays using recombinant human IDE and two different substrates: FRET1, a fluorogenic peptide, and recombinant human insulin.
IDE activity was quantified by monitoring the degradation of Mca-[…](Dnp) (FRET1, 5 μM), fluoresceinated and biotinylated amyloid ß-protein (FAßB; 500 nM) or recombinant human insulin (50 nM) in PBS supplemented with 0.05% BSA. FRET1 degradation was measured by changes in fluorescence (λex = 340 nm, λem = 420 nm); FAßB degradation was monitored by fluorescence polarization (λex = 488 nm, λem = 525 nm), as described; and insulin degradation was quantified by ELISA. In vitro activity assays incorporated recombinant human IDE (1 nM) purified from bacteria. For quantitation of insulin degradation in primary murine skin fibroblasts, cells (1 x 10^5/well) were plated in 96-well plates and maintained in DMEM supplemented with 10% fetal bovine serum (FBS), 2mM glutamine, penicillin and streptomycin. After addition of insulin (10 nM or 100 nM), samples of conditioned medium were removed daily and quickly frozen, then insulin levels were quantified in parallel by ELISA according to manufacturer’s recommendations (Crystal Chem, Downers Grove, IL, USA). Assessment of the activity of P12-3A against a variety of matrix-metalloproteases was conducted using the Matrix Metalloproteinase (MMP) Inhibitor Profiling Kit, Fluorometric RED (Enzo Life Sciences, Inc., Farmingdale, NY, USA) according to manufacturer’s recommendations using the broad-spectrum MMP inhibitor, NNGH, as a positive control.

[3] = molecular target: T1, IDE; experiment: Vulnerability of peptides to degradation by IDE: 0 vs 4 h pre-incubation, then FRET1 assay; type: biochemical; details: for Ki: Cheng-Prusoff from IC50, FRET1 KM 10 uM, substrate 5 uM; for remaining activity at 0.12207 µM / remaining activity at 0.488281 µM / remaining activity at 1.95312 µM / remaining activity at 7.8125 µM / remaining activity at 31.25 µM / remaining activity at 125 µM / remaining activity at 500 µM: 4 h, read-out: Percent Activity (normalized initial velocity of FRET1 hydrolysis); for remaining activity at 0.12207 µM / remaining activity at 0.488281 µM / remaining activity at 1.95312 µM / remaining activity at 7.8125 µM / remaining activity at 31.25 µM / remaining activity at 125 µM / remaining activity at 500 µM / Percent Activity (normalized initial velocity of FRET1 hydrolysis): relative to DMSO-only controls; for IC50: FRET1 assay
Protocol: as §1

[4] = initial test, percent of initial velocity relative to DMSO-only controls
[5] = 4-hr incubation, Cmpd 0.12207 uM, individual runs
[6] = 4-hr incubation, Cmpd 0.488281 uM, individual runs
[7] = 4-hr incubation, Cmpd 1.95312 uM, individual runs
[8] = 4-hr incubation, Cmpd 7.8125 uM, individual runs
[9] = 4-hr incubation, Cmpd 31.25 uM, individual runs
[10] = 4-hr incubation, Cmpd 125 uM, individual runs
[11] = 4-hr incubation, Cmpd 500 uM, individual runs
[12] = 0-hr incubation (immediately after combining enzyme and peptide), individual runs, read-out: IC50s
[13] = 4-hr incubation, individual replicates, read-out: IC50s
[14] = 4-hr incubation, mean of 2 replicates, read-out: IC50s, Mean
[15] = peptide at 10 uM, insulin 100 nM, normalized to DMSO-only and no-enzyme controls

CC(=O)N[C@@H](Cc1c[nH]c2ccccc12)C(=O)N[C@@H](CC(=O)O)C(=O)N[C@@H](Cc1ccccc1)C(=O)N[C@@H](CCCNC(=N)N)C(=O)N[C@@H](CCC(N)=O)C(=O)N[C@@H](Cc1c[nH]c2ccccc12)C(=O)N[C@@H](Cc1c[nH]c2ccccc12)C(=O)N[C@@H](CCC(N)=O)C(N)=O [P12-1D]
IC50 [1]: 210 µM | IC50 <500 uM? [1]: YES | remaining activity at 500 µM [1, 4]: 13.4% | remaining activity at 500 µM ([1]; judged as IC50 <100 uM?): 61.2% | Ki [1]: > 100 µM | IC50 [2]: > 10 µM | Ki [2]: > 10 µM | Ki ([3]; 4-hr incubation): 515 µM | remaining activity at 0.12207 µM [3, 5]: 102% | remaining activity at 0.488281 µM [3, 6]: 91.2% | remaining activity at 1.95312 µM [3, 7]: 99.3% | remaining activity at 7.8125 µM [3, 8]: 97.1% | remaining activity at 31.25 µM [3, 9]: 90.2% | remaining activity at 125 µM [3, 10]: 47.6% | remaining activity at 500 µM [3, 11]: 20.6% | IC50 [3, 12]: 138 µM and 282 µM | IC50 [3, 13]: 791 µM and 755 µM | IC50 [3, 14]: 773 µM

Ac-FRQWWQPS [P12-1C]
IC50 [1]: 208 µM | IC50 <500 uM? [1]: YES | remaining activity at 500 µM [1, 4]: 12.6% | remaining activity at 500 µM ([1]; judged as IC50 <100 uM?): 33.8% | Ki [1]: 139 ± 21 µM | IC50 [2]: > 10 µM | Ki [2]: > 10 µM | Ki ([3]; 0-hr incubation): 139 µM | Ki ([3]; 4-hr incubation): 327 µM | remaining activity at 0.12207 µM [3, 5]: 100% | remaining activity at 0.488281 µM [3, 6]: 104% | remaining activity at 1.95312 µM [3, 7]: 105% | remaining activity at 7.8125 µM [3, 8]: 104% | remaining activity at 31.25 µM [3, 9]: 78.2% | remaining activity at 125 µM [3, 10]: 24.3% | remaining activity at 500 µM [3, 11]: 2.79% | IC50 [3, 12]: 150 µM and 254 µM and 220 µM | IC50 [3, 13]: 482 µM and 500 µM | IC50 [3, 14]: 491 µM

LPWCTPHC [P12-3D]
Percent activity at 500 uM, Mean [1, 4]: 3.0% | Percent activity at 500 uM, Mean ([1]; judged as IC50 <100 uM?): 48.5% | percent decrease in insulin detected by ELISA, Replicate 1 [2, 15]: 77.7% | percent decrease in insulin detected by ELISA, Replicate 2 [2, 15]: 71.2% | percent decrease in insulin detected by ELISA, Replicate 3 [2, 15]: 96.7% | percent decrease in insulin detected by ELISA, Replicate 4 [2, 15]: 88.5% | percent decrease in insulin detected by ELISA, Mean ([2]; peptide at 10 uM, insulin 100 nM, normalized to DMSO-only and no-enzyme controls, N=4): 83.5% | Percent Activity (normalized initial velocity of FRET1 hydrolysis) ([3]; 0-hr incubation, Cmpd 0.12207 uM, individual runs): 96.4522% and 96.759% and 99.5993% | Percent Activity (normalized initial velocity of FRET1 hydrolysis) ([3]; 0-hr incubation, Cmpd 0.488281 uM, individual runs): 102.379% and 100.264% and 105.198% | Percent Activity (normalized initial velocity of FRET1 hydrolysis) ([3]; 0-hr incubation, Cmpd 1.95312 uM, individual runs): 104.101% and 99.4736% and 108.303% | Percent Activity (normalized initial velocity of FRET1 hydrolysis) ([3]; 0-hr incubation, Cmpd 7.8125 uM, individual runs): 98.6262% and 96.0429% and 106.212% | Percent Activity (normalized initial velocity of FRET1 hydrolysis) ([3]; 0-hr incubation, Cmpd 31.25 uM, individual runs): 88.0717% and 83.2988% and 94.9104% | Percent Activity (normalized initial velocity of FRET1 hydrolysis) ([3]; 0-hr incubation, Cmpd 125 uM, individual runs): 50.9238% and 50.5662% and 58.9795% | Percent Activity (normalized initial velocity of FRET1 hydrolysis) ([3]; 0-hr incubation, Cmpd 500 uM, individual runs): 18.0015% and 16.3891% and 26.5742% | Percent Activity (normalized initial velocity of FRET1 hydrolysis) [3, 5]: 81.980% and 88.388% | Percent Activity (normalized initial velocity of FRET1 hydrolysis) [3, 6]: 82.055% and 87.340% | Percent Activity (normalized initial velocity of FRET1 hydrolysis) [3, 7]: 95.585% and 92.840% | Percent Activity (normalized initial velocity of FRET1 hydrolysis) [3, 8]: 94.853% and 93.557% | Percent Activity (normalized initial velocity of FRET1 hydrolysis) [3, 9]: 102.800% and 95.281% | Percent Activity (normalized initial velocity of FRET1 hydrolysis) [3, 10]: 90.299% and 99.861% | Percent Activity (normalized initial velocity of FRET1 hydrolysis) [3, 11]: 61.928% and 59.590%
